Experimental data taken from US20250154163A1, “Pyrimidinone-Containing 17-Beta-Hydroxysteroid Dehydrogenase Type 13 Inhibitors” (ENANTA PHARMACEUTICALS, INC., priority 2023, published 2025).

Molecular target: T1, Recombinant human 17β-HSD13 (Homo sapiens, UniProt Q7Z5P4)
T1 construct: host or cells: Sf9 insect cells
T1 sequence (Q7Z5P4 20-300): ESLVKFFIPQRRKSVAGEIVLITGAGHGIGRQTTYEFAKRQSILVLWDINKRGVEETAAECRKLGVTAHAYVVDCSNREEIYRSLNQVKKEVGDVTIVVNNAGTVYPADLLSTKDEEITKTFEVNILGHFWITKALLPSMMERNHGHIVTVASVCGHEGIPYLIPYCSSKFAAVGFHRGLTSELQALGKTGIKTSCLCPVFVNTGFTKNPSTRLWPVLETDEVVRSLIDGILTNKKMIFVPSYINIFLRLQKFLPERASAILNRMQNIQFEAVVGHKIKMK
Experiment: 17β-HSD13 rapid-fire mass spectrometry assay (RF/MS assay)
Assay type: biochemical
Settings: inhibition of 17β-HSD13, RF/MS assay; HSD17B13 80 nM, LTB4 10 μM, NAD+ 0.5 mM, RT 3 h
How it was run: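 Purified recombinant human 17β-HSD13 (sf9-expressed, 80 nM) incubated with compound (0–100 μM), 10 μM LTB4 and 0.5 mM NAD+ in 20 mM Tris pH 7.5, 0.005% BSA, 0.01% Tween-20, 3 h at RT. 12-oxo-LTB4 formation quantified by RapidFire MS/MS; percent conversion normalized to controls, IC50 from variable-slope fit, duplicates.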

Row | IC50 | Compound
1 | < 100 nM | CS(=O)(=O)c1ccc(-c2nc3sc4c(O)c(Cl)ccc4c3c(=O)n2Cc2cnc(C(F)(F)F)nc2)c(C2CC2)c1 [Example 64, 7-chloro-2-(2-cyclopropyl-4-(methylsulfonyl)phenyl)-8-hydroxy-3-((2-(trifluoromethyl)pyrimidin-5-yl)methyl)benzo[4,5]thieno[2,3-d]pyrimidin-4(3H)-one]
2 | < 100 nM | COc1ccc(-c2nc3sc4c(O)c(Cl)ccc4c3c(=O)n2Cc2cnco2)c(C2CC2)c1 [Example 26, 7-chloro-2-(2-cyclopropyl-4-methoxyphenyl)-8-hydroxy-3-(oxazol-5-ylmethyl)benzo[4,5]thieno[2,3-d]pyrimidin-4(3H)-one]
